# Experimental data as given in ChEMBL document CHEMBL3286215, “Preparation, anticholinesterase activity and molecular docking of new lupane derivatives” (Bioorg Med Chem, 2014).
# Activity calls are given as the source filed them. No cut-off for these calls is given here.
# Columns and labels:
# [1] = molecular target: Acetylcholinesterase (Torpedo californica) (UniProt P04058); experiment: Inhibition of Pacific electric ray AChE using acetylthiocholine iodide as substrate at 200 uM after 60 mins by Ellman's method relative to control; details: Tetronarce californica
# Chain of Acetylcholinesterase (Torpedo californica) (P04058 22-564 limits assumed): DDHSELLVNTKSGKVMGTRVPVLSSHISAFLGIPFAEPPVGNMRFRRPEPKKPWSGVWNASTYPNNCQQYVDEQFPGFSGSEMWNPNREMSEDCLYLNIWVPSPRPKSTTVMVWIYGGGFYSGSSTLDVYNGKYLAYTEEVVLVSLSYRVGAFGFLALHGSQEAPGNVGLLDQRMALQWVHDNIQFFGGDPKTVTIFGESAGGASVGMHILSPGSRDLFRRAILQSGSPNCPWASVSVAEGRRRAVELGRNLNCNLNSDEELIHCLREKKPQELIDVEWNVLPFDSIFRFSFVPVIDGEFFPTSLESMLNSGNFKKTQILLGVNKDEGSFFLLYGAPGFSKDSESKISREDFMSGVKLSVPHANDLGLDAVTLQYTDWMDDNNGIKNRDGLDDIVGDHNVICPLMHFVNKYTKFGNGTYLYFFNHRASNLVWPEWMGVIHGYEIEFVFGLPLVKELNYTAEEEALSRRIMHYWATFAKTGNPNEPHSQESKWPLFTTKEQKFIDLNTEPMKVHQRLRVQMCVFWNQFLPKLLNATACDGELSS
# [2] = molecular target: Cholinesterase (Equus caballus) (UniProt P81908); experiment: Inhibition of BChE in horse serum using butyrylthiocholine iodide as substrate at 200 uM after 120 mins by Ellman's method relative to control
# Chain of Cholinesterase (Equus caballus) (P81908 whole entry): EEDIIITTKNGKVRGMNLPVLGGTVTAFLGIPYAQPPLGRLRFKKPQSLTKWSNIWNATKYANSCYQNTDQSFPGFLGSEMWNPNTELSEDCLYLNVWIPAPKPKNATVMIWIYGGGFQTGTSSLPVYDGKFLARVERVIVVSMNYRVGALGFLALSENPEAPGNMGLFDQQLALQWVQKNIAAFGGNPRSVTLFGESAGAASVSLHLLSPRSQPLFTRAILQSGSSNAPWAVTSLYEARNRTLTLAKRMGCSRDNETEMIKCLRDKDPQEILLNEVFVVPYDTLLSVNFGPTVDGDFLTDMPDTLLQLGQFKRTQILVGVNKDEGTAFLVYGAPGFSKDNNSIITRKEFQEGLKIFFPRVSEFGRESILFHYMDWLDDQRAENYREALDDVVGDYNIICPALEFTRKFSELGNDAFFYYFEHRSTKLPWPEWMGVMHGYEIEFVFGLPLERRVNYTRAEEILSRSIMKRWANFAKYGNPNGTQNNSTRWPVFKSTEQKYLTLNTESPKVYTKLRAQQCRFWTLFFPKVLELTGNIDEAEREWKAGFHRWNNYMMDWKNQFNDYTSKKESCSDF
# Acetylcholinesterase [3] = molecular target: T1, Acetylcholinesterase (Torpedo californica, UniProt P04058)
# T1 sequence (P04058 whole entry): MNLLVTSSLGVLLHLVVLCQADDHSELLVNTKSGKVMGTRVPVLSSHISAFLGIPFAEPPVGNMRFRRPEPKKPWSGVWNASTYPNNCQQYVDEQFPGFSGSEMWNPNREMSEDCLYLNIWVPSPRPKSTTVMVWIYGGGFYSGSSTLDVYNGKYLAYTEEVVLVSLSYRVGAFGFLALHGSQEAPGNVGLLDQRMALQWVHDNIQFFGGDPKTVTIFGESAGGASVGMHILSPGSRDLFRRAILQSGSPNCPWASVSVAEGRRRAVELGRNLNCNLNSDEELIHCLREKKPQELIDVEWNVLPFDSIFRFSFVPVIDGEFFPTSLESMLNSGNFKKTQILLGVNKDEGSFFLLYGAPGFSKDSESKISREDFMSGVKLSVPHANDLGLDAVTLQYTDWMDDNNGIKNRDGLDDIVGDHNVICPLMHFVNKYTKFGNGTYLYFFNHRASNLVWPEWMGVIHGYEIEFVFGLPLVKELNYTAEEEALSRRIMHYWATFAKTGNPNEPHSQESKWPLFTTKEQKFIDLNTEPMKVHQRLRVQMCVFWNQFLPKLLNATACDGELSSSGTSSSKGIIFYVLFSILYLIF
# Description: Inhibition of Pacific electric ray AChE using acetylthiocholine iodide as substrate after 60 mins by Ellman's method
# Cholinesterase = Cholinesterase (Equus caballus, UniProt P81908)
# Chain of Cholinesterase (P81908 whole entry): as the sequence (P81908 whole entry) above
# Description: Inhibition of BChE in horse serum using butyrylthiocholine iodide as substrate after 120 mins by Ellman's method
# [4] = Selectivity index, ratio of IC50 for Pacific electric ray AChE to IC50 for BChE in horse serum
# Acetylcholinesterase [5] = molecular target: T1, Acetylcholinesterase; experiment: Uncompetitive inhibition of Pacific electric ray AChE using acetylthiocholine as substrate by Lineweaver-Burk plot analysis; parameters: species or system Tetronarce californica
SMILES,inhibition [1],inhibition [2],IC50 (Acetylcholinesterase [3]),IC50 (Cholinesterase),Ratio IC50 [4],Ki (Acetylcholinesterase [5])
CC1(C)[C@@H](O)CC[C@]2(C)[C@H]3CC[C@@H]4[C@H]5[C@H]([C@@]6(C)CO6)CC[C@]5(C)[C@@H](O)C[C@@]4(C)[C@]3(C)CC[C@@H]12,24.3%,19.4%,> 200 µM,,,
CC(C)[C@@H]1CC[C@@]2(C)[C@H]1[C@H]1CC[C@@H]3[C@@]4(C)CC[C@H](O)C(C)(C)[C@@H]4CC[C@@]3(C)[C@]1(C)C[C@@H]2O,24.3%,14.3%,> 200 µM,,,
C=C(C)[C@@H]1CC[C@@]2(C)[C@H]1[C@H]1CC[C@@H]3[C@@]4(C)CC[C@H](OC(=O)CCCCC(=O)O)C(C)(C)[C@@H]4CC[C@@]3(C)[C@]1(C)C[C@@H]2OC(=O)CCCCC(=O)O,20.2%,89.2%,> 200 µM,80.6 µM,> 2.48,
C=CCCC(=O)O[C@H]1CC[C@]2(C)[C@H]3CC[C@@H]4[C@H]5[C@H](C(=C)C)CC[C@]5(C)[C@@H](OC(=O)CCC=C)C[C@@]4(C)[C@]3(C)CC[C@H]2C1(C)C,6.4%,29.3%,,,,
CC1(C)[C@@H](OS(=O)(=O)O)CC[C@]2(C)[C@H]3CC[C@@H]4[C@H]5[C@H]([C@@]6(C)CO6)CC[C@]5(C)[C@@H](OS(=O)(=O)O)C[C@@]4(C)[C@]3(C)CC[C@@H]12,13.7%,43.7%,> 200 µM,> 200 µM,,
C=C(CO)[C@@H]1CC[C@@]2(C)[C@H]1[C@H]1CC[C@@H]3[C@@]4(C)CC[C@H](OS(=O)(=O)O)C(C)(C)[C@@H]4CC[C@@]3(C)[C@]1(C)C[C@@H]2OS(=O)(=O)O,10.8%,56.8%,> 200 µM,188 µM,> 1.7,
C=C(C)[C@@H]1CC[C@@]2(C)[C@H]1[C@H]1CC[C@@H]3[C@@]4(C)CC[C@H](OC(C)=O)C(C)(C)[C@@H]4CC[C@@]3(C)[C@]1(C)C[C@@H]2O,1.9%,46.2%,,> 200 µM,,
C=C(COS(=O)(=O)O)[C@@H]1CC[C@@]2(C)[C@H]1[C@H]1CC[C@@H]3[C@@]4(C)CC[C@H](OS(=O)(=O)O)C(C)(C)[C@@H]4CC[C@@]3(C)[C@]1(C)C[C@@H]2OS(=O)(=O)O,12.9%,50.2%,> 200 µM,> 200 µM,,
C=C(C)[C@@H]1CC[C@@]2(C)[C@H]1[C@H]1CC[C@@H]3[C@@]4(C)CC[C@H](O)C(C)(C)[C@@H]4CC[C@@]3(C)[C@]1(C)C[C@@H]2OC(C)=O,5.6%,51.2%,,> 200 µM,,
C=C(C)[C@@H]1CC[C@@]2(C)[C@H]1[C@H]1CC[C@@H]3[C@@]4(C)CC[C@H](OC(=O)c5ccccc5)C(C)(C)[C@@H]4CC[C@@]3(C)[C@]1(C)C[C@@H]2OC(=O)c1ccccc1,3.9%,39.9%,,,,
C=C(CO)[C@@H]1CC[C@@]2(C)[C@H]1[C@H]1CC[C@@H]3[C@@]4(C)CC[C@H](O)C(C)(C)[C@@H]4CC[C@@]3(C)[C@]1(C)C[C@@H]2O,40.4%,32%,> 200 µM,,,
C=C(C=O)[C@@H]1CC[C@@]2(C)[C@H]1[C@H]1CC[C@@H]3[C@@]4(C)CC[C@H](O)C(C)(C)[C@@H]4CC[C@@]3(C)[C@]1(C)C[C@@H]2O,43.5%,42%,> 200 µM,,,
C=C(C)[C@@H]1CC[C@@]2(C)[C@H]1[C@H]1CC[C@@H]3[C@@]4(C)CC[C@H](OC(C)=O)C(C)(C)[C@@H]4CC[C@@]3(C)[C@]1(C)C[C@@H]2OC(C)=O,3.3%,35.2%,,,,
C=C(C)[C@@H]1CC[C@]2(C)C(=O)C[C@]3(C)[C@H](CC[C@@H]4[C@@]5(C)CCC(=O)C(C)(C)[C@@H]5CC[C@]43C)[C@@H]12,6.4%,33.4%,,,,
C=C(C=O)[C@@H]1CC[C@@]2(C)[C@H]1[C@H]1CC[C@@H]3[C@@]4(C)CC[C@H](OS(=O)(=O)O)C(C)(C)[C@@H]4CC[C@@]3(C)[C@]1(C)C[C@@H]2OS(=O)(=O)O,6.1%,18.4%,,,,
C=C(C)[C@@H]1CC[C@@]2(C)[C@H]1[C@H]1CC[C@H]3[C@@]4(C)CC[C@H](O)C(C)(C)[C@@H]4CC[C@@]3(C)[C@]1(C)C[C@@H]2O,8.1%,42%,,,,
C=C(C=O)[C@@H]1CC[C@@]2(C)[C@H]1[C@H]1CC[C@@H]3[C@@]4(C)CC[C@H](OC(C)=O)C(C)(C)[C@@H]4CC[C@@]3(C)[C@]1(C)C[C@@H]2OC(C)=O,6.8%,45.8%,,> 200 µM,,
C=C(C=O)[C@@H]1CC[C@]2(C)C(=O)C[C@]3(C)[C@H](CC[C@@H]4[C@@]5(C)CCC(=O)C(C)(C)[C@@H]5CC[C@]43C)[C@@H]12,21.7%,86.5%,> 200 µM,21.5 µM,> 9.3,
C=C(C)[C@@H]1CC[C@@]2(C)[C@H]1[C@H]1CC[C@@H]3[C@@]4(C)CC[C@H](OS(=O)(=O)O)C(C)(C)[C@@H]4CC[C@@]3(C)[C@]1(C)C[C@@H]2OS(=O)(=O)O,71%,78.5%,190 µM,64.3 µM,2.95,
C=C(C)[C@@H]1CC[C@@]2(C)[C@H]1[C@H]1CCC3[C@@]4(C)CC[C@H](O)C(C)(C)[C@@H]4CC[C@@]3(C)[C@]1(C)C[C@@H]2O (some centres not stated) [CALENDULADIOL],,,> 200 µM,> 200 µM,,
C=C(COC(C)=O)[C@@H]1CC[C@@]2(C)[C@H]1[C@H]1CC[C@@H]3[C@@]4(C)CC[C@H](OC(C)=O)C(C)(C)[C@@H]4CC[C@@]3(C)[C@]1(C)C[C@@H]2OC(C)=O,7.2%,,,,,
CC(C)[C@@H]1CC[C@@]2(C)[C@H]1[C@H]1CC[C@@H]3[C@@]4(C)CC[C@H](OS(=O)(=O)O)C(C)(C)[C@@H]4CC[C@@]3(C)[C@]1(C)C[C@@H]2OS(=O)(=O)O,98.9%,87.8%,58.8 µM,104 µM,0.56,144 µM
C=C(C)[C@@H]1CC[C@@]2(C)[C@H]1[C@H]1CC[C@@H]3[C@@]4(C)CC[C@H](OC(=O)c5ccc(Br)cc5)C(C)(C)[C@@H]4CC[C@@]3(C)[C@]1(C)C[C@@H]2OC(=O)c1ccc(Br)cc1,inactive,18.4%,,,,
